The experiment concerns the target acetylcholine esterase (Homo sapiens, UniProt P22303). Kind of experiment: biochemical. Conditions: read-out: IC 50 for acetylcholine esterase inhibition. From the text:
The determination of the acetylcholine esterase inhibition was effected according to the method of Ellmann et al., Biochem. Pharmacol. 7 (1961) 88, and/or according to the method of Johnson et al., Analytical Biochemistry 64 (1975), 229.

acetylcholine esterase, sequence (P22303 32-614): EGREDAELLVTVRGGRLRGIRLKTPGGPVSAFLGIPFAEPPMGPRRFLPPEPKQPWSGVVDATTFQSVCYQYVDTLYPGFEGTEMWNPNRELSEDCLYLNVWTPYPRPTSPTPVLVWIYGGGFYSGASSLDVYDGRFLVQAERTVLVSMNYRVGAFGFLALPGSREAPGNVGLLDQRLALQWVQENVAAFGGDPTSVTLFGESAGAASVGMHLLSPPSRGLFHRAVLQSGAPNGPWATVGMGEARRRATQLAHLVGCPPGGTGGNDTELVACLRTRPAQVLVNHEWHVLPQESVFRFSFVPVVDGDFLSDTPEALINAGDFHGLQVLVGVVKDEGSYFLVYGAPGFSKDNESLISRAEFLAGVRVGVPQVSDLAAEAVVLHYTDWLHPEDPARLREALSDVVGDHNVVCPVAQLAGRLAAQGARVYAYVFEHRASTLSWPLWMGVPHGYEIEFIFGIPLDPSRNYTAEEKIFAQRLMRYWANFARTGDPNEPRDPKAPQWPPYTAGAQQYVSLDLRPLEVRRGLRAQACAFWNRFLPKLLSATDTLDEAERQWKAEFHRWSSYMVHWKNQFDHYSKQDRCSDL

On to `CN(C)C(=O)Oc1cccc2c1CC[C@H]1[C@@H]2CCN1CCC1CCCC1` (racemic) [rac-3-(2-cyclopentylethyl)-cis-2,3,3a,4,5,9b-hexahydro-1H-benzo[e]indol-6-yl dimethylcarbamate], for which the IC50 is 0.03 µM. The same measure for `CN(C)C(=O)Oc1cccc2c1CC[C@H]1[C@@H]2CCN1CCN1CCCCC1` (racemic) [rac-3-(2-piperidin-1-yl-ethyl)-cis-2,3,3a,4,5,9b-hexahydro-1H-benzo[e]indol-6-yl dimethylcarbamate]: 0.031 µM; for `CN(C)C(=O)Oc1cccc2c1CC[C@H]1[C@@H]2CCN1CCCC(=O)c1ccccc1` (racemic) [rac-3-(3-benzoyl-propyl)-cis-2,3,3a,4,5,9b-hexahydro-1H-benzo[e]indol-6-yl dimethylcarbamate]: 0.0083 µM.

For the molecule `CN(C)C(=O)Oc1cccc2c1CC[C@H]1[C@@H]2CCN1CCCC1CCCCC1` (racemic) [rac-3-(3-cyclohexylpropyl)-cis-2,3,3a,4,5,9b-hexahydro-1H-benzo[e]indol-6-yl dimethylcarbamate], the IC50 amounted to 0.019 µM.

As for `CC(C)CCN1CC[C@@H]2c3cccc(OC(=O)N(C)C)c3CC[C@@H]21` (racemic) [rac-3-(3-methylbutyl)-cis-2,3,3a,4,5,9b-hexahydro-1H-benzo[e]indol-6-yl dimethylcarbamate], the IC50 stood at 0.067 µM. With `CN(C)C(=O)Oc1cccc2c1CC[C@H]1[C@@H]2CCN1CCCN1CCOCC1` (racemic) [rac-3-(3-morpholin-4-yl-propyl)-cis-2,3,3a,4,5,9b-hexahydro-1H-benzo[e]indol-6-yl dimethylcarbamate] the figure was 0.063 µM. In the case of `CN(C)C(=O)Oc1cccc2c1CC[C@H]1[C@@H]2CCN1CCCc1ccccc1` (racemic) [rac-3-(3-phenylpropyl)-cis-2,3,3a,4,5,9b-hexahydro-1H-benzo[e]indol-6-yl dimethylcarbamate], the IC50 amounted to 0.036 µM. For the molecule `CN(C)C(=O)Oc1cccc2c1CC[C@H]1[C@@H]2CCN1CCCCC(=O)c1ccccc1` (racemic) [rac-3-(4-benzoyl-butyl)-cis-2,3,3a,4,5,9b-hexahydro-1H-benzo[e]indol-6-yl dimethylcarbamate], the IC50 came to 0.612 µM. With `CN(C)C(=O)Oc1cccc2c1CC[C@H]1[C@@H]2CCN1CCCC(=O)c1ccc(F)cc1` (racemic) [rac-3-[3-(4-fluoro-benzoyl)-propyl]-cis-2,3,3a,4,5,9b-hexahydro-1H-benzo[e]indol-6-yl dimethylcarbamate] the figure was 0.0068 µM; with `CN(C)C(=O)Oc1cccc2c1CC[C@H]1[C@@H]2CCN1CCCCN1Cc2ccccc2C1=O` (racemic) [rac-3-[4-(1-oxo-isoindolin-2-yl)-butyl]-cis-2,3,3a,4,5,9b-hexahydro-1H-benzo[e]indol-6-yl dimethylcarbamate], 0.0086 µM. Turning to `COc1ccc(C(=O)CCCCN2CC[C@@H]3c4cccc(OC(=O)N(C)C)c4CC[C@@H]32)cc1OC` (racemic) [rac-3-[4-(3,4-Dimethoxy-benzoyl)-butyl]-cis-2,3,3a,4,5,9b-hexahydro-1H-benzo[e]indol-6-yl dimethylcarbamate], the IC50 came out at 0.0014 µM. With `CN(C)C(=O)Oc1cccc2c1CC[C@H]1[C@@H]2CCN1CCCCN1C(=O)CC(C)(C)CC1=O` (racemic) [rac-3-[4-(4,4-dimethyl-2,6-dioxo-piperidin-1-yl)-butyl]-cis-2,3,3a,4,5,9b-hexahydro-1H-benzo[e]indol-6-yl dimethylcarbamate] the figure was 0.013 µM; with `CN(C)C(=O)Oc1cccc2c1CC[C@H]1[C@@H]2CCN1CCCCCN1C(=O)c2ccccc2C1=O` (racemic) [rac-3-[5-(1,3-dioxo-isoindolin-2-yl)-pentyl]-cis-2,3,3a,4,5,9b-hexahydro-1H-benzo[e]indol-6-yl dimethylcarbamate], 0.0027 µM; with `CN(C)C(=O)Oc1cccc2c1CC[C@H]1[C@@H]2CCN1CCCCCN1Cc2ccccc2C1=O` (racemic) [rac-3-[5-(1-oxo-isoindolin-2-yl)-pentyl]-cis-2,3,3a,4,5,9b-hexahydro-1H-benzo[e]indol-6-yl dimethylcarbamate], 0.0045 µM. As for `COc1ccc(C(=O)CCCCCN2CC[C@@H]3c4cccc(OC(=O)N(C)C)c4CC[C@@H]32)cc1OC` (racemic) [rac-3-[5-(3,4-dimethoxy-benzoyl)-pentyl]-cis-2,3,3a,4,5,9b-hexahydro-1H-benzo[e]indol-6-yl dimethylcarbamate], the IC50 is 0.0012 µM. For `CN(C)C(=O)Oc1cccc2c1CC[C@H]1[C@@H]2CCN1CCCCCN1C(=O)CC(C)(C)CC1=O` (racemic) [rac-3-[5-(4,4-dimethyl-2,6-dioxo-piperidin-1-yl)-pentyl]-cis-2,3,3a,4,5,9b-hexahydro-1H-benzo[e]indol-6-yl dimethylcarbamate], the IC50 was 0.011 µM.

As to `CN(C)C(=O)Oc1cccc2c1CC[C@H]1[C@@H]2CCN1CCCCCCN1Cc2ccccc2C1=O` (racemic) [rac-3-[6-(1-oxo-isoindolin-2-yl)-hexyl]-cis-2,3,3a,4,5,9b-hexahydro-1H-benzo[e]indol-6-yl dimethylcarbamate], the IC50 was 0.0029 µM.

Regarding `CN(C)C(=O)Oc1cccc2c1CC[C@H]1[C@@H]2CCN1CCCCCCN1C(=O)CC(C)(C)CC1=O` (racemic) [rac-3-[6-(4,4-dimethyl-2,6-dioxo-piperidin-1-yl)-hexyl]-cis-2,3,3a,4,5,9b-hexahydro-1H-benzo[e]indol-6-yl dimethylcarbamate], the IC50 was 0.008 µM.

As to `CN(C)C(=O)Oc1cccc2c1CC[C@H]1[C@@H]2CCN1CC1CCCCC1` (racemic) [rac-3-cyclohexylmethyl-cis-2,3,3a,4,5,9b-hexahydro-1H-benzo[e]indol-6-yl dimethylcarbamate], the IC50 was determined as 0.036 µM. For `CN(C)C(=O)Oc1cccc2c1CC[C@H]1[C@@H]2CCN1CCc1ccccc1` (racemic) [rac-3-phenethyl-cis-2,3,3a,4,5,9b-hexahydro-1H-benzo[e]indol-6-yl dimethylcarbamate], the IC50 was 0.047 µM.

Turning to `CCCN1CC[C@@H]2c3cccc(OC(=O)N(C)C)c3CC[C@@H]21` (racemic) [rac-3-propyl-cis-2,3,3a,4,5,9b-hexahydro-1H-benzo[e]indol-6-yl dimethylcarbamate], the IC50 is 0.04 µM. With `CCCCNC(=O)Oc1cccc2c1CC[C@H]1[C@@H]2CCN1CCC1CCCCC1` (racemic) [rac-cis-3-(2-cyclohexylethyl)-2,3,3a,4,5,9b-hexahydro-1H-benzo[e]indol-6-yl butylcarbamate] the figure was 0.793 µM.

Turning to `CN(C)C(=O)Oc1cccc2c1CC[C@H]1[C@@H]2CCN1CCCC1CCCC1` (racemic) [rac-cis-3-(3-cyclopentyl-propyl)-2,3,3a,4,5,9b-hexahydro-1H-benzo[e]indol-6-yl dimethylcarbamate], the IC50 is 0.014 µM. With `CN(C)C(=O)Oc1cccc2c1CC[C@H]1[C@@H]2CCN1CCCCNC(=O)c1ccccc1` (racemic) [rac-cis-3-(4-benzoylaminobutyl)-2,3,3a,4,5,9b-hexahydro-1H-benzo[e]indol-6-yl dimethylcarbamate] the figure was 0.016 µM; with `CN(C)C(=O)Oc1cccc2c1CC[C@H]1[C@@H]2CCN1CCCCC1CCCCC1` (racemic) [rac-cis-3-(4-cyclohexyl-butyl)-2,3,3a,4,5,9b-hexahydro-1H-benzo[e]indol-6-yl dimethylcarbamate], 0.035 µM; with `CN(C)C(=O)Oc1cccc2c1CC[C@H]1[C@@H]2CCN1CCCCCNC(=O)c1ccc(S(C)(=O)=O)cc1` (racemic) [rac-cis-3-[5-(4-methanesulfonylbenzoylamino)pentyl]-2,3,3a,4,5,9b-hexahydro-1H-benzo[e]indol-6-yl dimethylcarbamate], 0.0051 µM. In the case of `CN(C)C(=O)Oc1cccc2c1CC[C@H]1[C@@H]2CCN1C1CCCC1` (racemic) [rac-cis-3-cyclopentyl-2,3,3a,4,5,9b-hexahydro-1H-benzo[e]indol-6-yl dimethylcarbamate], the IC50 is 0.095 µM. With `CN(C)C(=O)Oc1cccc2c1CC[C@@H]1[C@H]2CCN1CCCCN` (relative stereo) [rac-3-(4-aminobutyl)-2,3,3a,4,5,9b-hexahydro-1H-cis-benzo[e]indol-6-yl dimethylcarbamate], the IC50 was found to be 0.267 µM. On to `CN(C)C(=O)Oc1cccc2c1CC[C@@H]1[C@H]2CCN1CCCCCN` (relative stereo) [rac-3-(5-aminopentyl)-2,3,3a,4,5,9b-hexahydro-1H-cis-benzo[e]indol-6-yl dimethylcarbamate], for which the IC50 was determined as 0.111 µM. With `CN(C)C(=O)Oc1cccc2c1CC[C@@H]1[C@H]2CCN1CCCCCNC(=O)c1ccccc1` (relative stereo) [rac-3-(5-benzoylaminopentyl)-2,3,3a,4,5,9b-hexahydro-1H-cis-benzo[e]indol-6-yl dimethylcarbamate] the figure was 0.0152 µM; with `CN(C)C(=O)Oc1cccc2c1CC[C@@H]1[C@H]2CCN1CCCCCCN` (relative stereo) [rac-3-(6-aminohexyl)-2,3,3a,4,5,9b-hexahydro-1H-cis-benzo[e]indol-6-yl dimethylcarbamate], 0.008 µM. Consider `CN(C)C(=O)Oc1cccc2c1CC[C@@H]1[C@H]2CCN1CCCCCCNC(=O)c1ccccc1` (relative stereo) [rac-3-(6-benzoylamino-hexyl)-2,3,3a,4,5,9b-hexahydro-1H-cis-benzo[e]indol-6-yl-dimethylcarbamate], for which the IC50 came to 0.011 µM. The same measure for `CN(C)C(=O)Oc1cccc2c1CC[C@@H]1[C@H]2CCN1CCCCCN1C(=O)[C@H]2CCCC[C@H]2C1=O` (relative stereo) [rac-3-[5-(1,3-dioxo-octahydro-cis-isoindol-2-yl)pentyl]-2,3,3a,4,5,9b-hexahydro-1H-cis-benzo[e]indol-6-yl dimethylcarbamate]: 0.0078 µM; for `CN(C)C(=O)Oc1cccc2c1CC[C@@H]1[C@H]2CCN1CCCCCCNC(=O)c1ccc(S(C)(=O)=O)cc1` (relative stereo) [rac-3-[6-(4-methanesulfonyl-benzoylamino)hexyl]-2,3,3a,4,5,9b-hexahydro-1H-cis-benzo[e]indol-6-yl-dimethylcarbamate]: 0.0056 µM.

For the origin of these results see patent US5318967A, “2,3,3a,4,5,9b-hexahydro-1H-benzo[e]indole derivatives” (priority 1991, dated 1994).
